Patent US20240287021A1, “QUATERNARY AMMONIUM SALT COMPOUND, PREPARATION METHOD THEREFOR AND USE THEREOF” (YICHANG HUMANWELL PHARMACEUTICAL CO., LTD., priority 2021, published 2024)
Counter-ions that a name gives are not always drawn.

What was measured:
sciatic nerve = experiment: Local anesthetic effect of nerve block (sciatic nerve block model, hot plate test); format: in vivo; conditions: rat, single dose 5 mL/Kg through right sciatic nerve, example compounds 6 mg/mL (8.6-10.1 mmol/L), hot plate 50°C; for Duration: levobupivacaine hydrochloride 2 mg/mL, MPE at least 50%
Procedure: Three groups of fully acclimatized rats, one in each group, were given to the example compounds and levobupivacaine hydrochloride positive control, respectively.
Solution preparation: 2 mg/mL levobupivacaine hydrochloride injection: 2.670 mL of 7.5 mg/mL levobupivacaine hydrochloride injection (batch number: 92S0702) was pipetted by a pipette and added into a 10 mL volumetric flask, 0.9% NaCl solution was added until the concave liquid level was flush with the scale line, and the volumetric flask was turned upside down to mix the solution well to prepare 2 mg/ml levobupivacaine hydrochloride injection. 6 mg/mL (the molar concentration calculated from the molecular weight of the example compound ranged from 8.6 to 10.1 mmol/L) example compound solution: 19.80 mg of example compound was accurately weighed and added with 3.3 mL of 0.9% NaCl solution to prepare 6 mg/mL example compound solution.
Each rat was administered or control injected at 5 mL/Kg, in a single dose through right sciatic nerve, and thereafter, the rat was placed on a hot plate of a preheated 50±0.1° C. smart hot plate apparatus. The time required for the occurrence of the behavioral phenomena of avoiding thermal stimuli, such as obvious foot lifting and foot licking on the administered side of the rat was recorded, as the hot incubation period. The allowable maximum value of the hot incubation period was controlled at 60 s. If the rat still has no foot licking after 60 s, the hind foot of the rat was lifted manually to avoid tissue injury or hyperalgesia, and 60 s was taken as the hot incubation period of the rat. After each measurement, the hot plate was wiped in time to remove possible urine and feces, and was dried for subsequent testing.
The results of the hot incubation period were expressed with maximum proportionality effect (MPE) and calculated using the following equation:
[formula] • wherein B represents the basic hot incubation period of rats, P represents the allowable maximum hot incubation period, and C represents the hot incubation period at the detection time point.
It was specified that the tested time below 50% of the maximum proportionality effect was determined to be invalid, and the test was stopped if two consecutive tests were both below 50% of the maximum proportionality effect.

[1] = system: rat subcutaneous infiltration models; experiment: Subcutaneous infiltration local anesthetic effect (Von Frey stinging stimulus on back skin); format: in vivo; conditions: SD rats
Procedure: SD rats (half male and half female) with a body weight of 190-210 grams were shaved and sterilized on the back, then a circle with a diameter of about 1.5 cm was drawn on one side of the bare back, and 0.5 mL of a drug-containing solution was subcutaneously injected into the skin in the center: normal saline was used as the solvent, 2 mg/mL levobupivacaine hydrochloride, 9 compounds of the present application were selected, at a concentration of 6 mg/mL (the equivalent molar concentration ranged from 8.6 to 10.1 mmol/L according to the corresponding molecular weights of the example compounds), with 10 rats in each group. Von Frey fiber filaments with 100 g strength were bound to a needle for topical skin stimulation. 1 min after drug injection, response of rats to stinging stimulus was tested. The test sites were six different points of the circle of the administration site, and whether behaviors such as skin contraction and avoidance occurred after stimulus was observed and recorded. Three points in the center of the circle and three points on the periphery of the circle were stimulated separately, and the number of occurrences of skin contraction and avoidance behavior was recorded as N/6. In terms of judgment, if there were 4 or more occurrences of avoidance and skin contraction behaviors, it was considered that the drug was ineffective; if there was a reaction on the periphery (≤3) and no reaction (≥1) in the center, it was considered that the drug was still effective; and if there was a reaction only at the points in the center, it was considered that the drug was ineffective. Each compound was tested with 10 rats.
Since the local anesthesia time longer than 72 hours may cause irreversible nerve injury, we subsequently halved (3 mg/mL) the dose of the compounds with the duration of action greater than 72 hours and then conducted an activity test to determine whether the local anesthesia effect could be restored in the skin infiltration models.

[2] = 0.5 mL subcutaneous on back, compounds 6 mg/mL (8.6-10.1 mmol/L)
[3] = 0.5 mL subcutaneous on back, compounds 6 mg/mL (8.6-10.1 mmol/L), levobupivacaine hydrochloride 2 mg/mL
[4] = subcutaneous on back, compounds 3 mg/mL (4.4-5.1 mmol/L)

With `CCCC[N+]1(CCCCN2CCCCC2C(=O)NC2CCCCC2)CCCCC1C(=O)Nc1c(C)cccc1C` (stereo not drawn) [Compound 9] the Duration (sciatic nerve) was 24 h and the Onset time (sciatic nerve) was 1 min.
`CCCC[N+]1(CCCCCN2CCCCC2C(=O)Nc2ccc(F)cc2)CCC[C@@H]1C(=O)Nc1c(C)cc(C)cc1C` (stereo partly drawn) [Compound 32] showed a Duration (sciatic nerve) of 12 to 24 h and an Onset time (sciatic nerve) of 1 min.
Work on `CCC[N+]1(CCCCCN2CCCCC2C(=O)Nc2ccc(C)cc2)CCCCC1C(=O)Nc1c(C)cccc1C` (stereo not drawn) [Compound 12] yielded an Onset time [1, 2] of 1 min, a Duration [1, 3] of 72 to 96 h and a Duration [1, 4] of 60 h. For the same molecule, the Onset time [1, 4] was 1 min, the Duration (sciatic nerve) was 48 h and the Onset time (sciatic nerve) was 1 min.
Molecule `CCCC[N+]1(CCCCCN2CCCCC2C(=O)Nc2c(C)cccc2C)CCCCC1C(=O)Nc1c(C)cccc1C` (stereo not drawn) [Compound 1] has an Onset time [1, 2] of 1 min, a Duration [1, 3] of 55 h and a Duration (sciatic nerve) of 24 h. For the same molecule, the Onset time (sciatic nerve) was 1 min.
`CCCCN1CCCC[C@H]1C(=O)Nc1c(C)cccc1C` [Levobupivacaine hydrochloride, reference compound] gave a Duration [1, 3] of 4 h, a Duration [1, 4] of 3 h and a Duration (sciatic nerve) of 3 h.
Work on `CCCC[N+]1(CCCCN2CCCCC2C(=O)Nc2c(C)cccc2C)CCC[C@@H]1C(=O)Nc1c(C)cc(C)cc1C` (stereo partly drawn) [Compound 27] yielded a Duration (sciatic nerve) of 12 to 24 h and an Onset time (sciatic nerve) of 1 min.
`CCCC[N+]1(CCCCN2CCCCC2C(=O)Nc2ccc(C)cc2)CCC[C@@H]1C(=O)Nc1c(C)cccc1C` (stereo partly drawn) [Compound 18] gave a Duration (sciatic nerve) of 20 h and an Onset time (sciatic nerve) of 1 min.
`CCCC[N+]1(CCCCN2CCCCC2C(=O)Nc2ccc(F)cc2)CCC[C@@H]1C(=O)Nc1c(C)cc(C)cc1C` (stereo partly drawn) [Compound 29] gave an Onset time [1, 2] of 1 min, a Duration [1, 3] of 50 h and a Duration (sciatic nerve) of 24 to 48 h. For the same molecule, the Onset time (sciatic nerve) was 1 min.
`CCCC[N+]1(CCCCN2CCCCC2C(=O)Nc2ccc(C(F)(F)F)cc2)CCC[C@@H]1C(=O)Nc1c(C)cccc1C` (stereo partly drawn) [Compound 20] gave a Duration (sciatic nerve) of 12 to 24 h and an Onset time (sciatic nerve) of 1 min.
`CCCC[N+]1(CCCCN2CCCCC2C(=O)Nc2ccc(F)cc2)CCC[C@@H]1C(=O)Nc1c(C)cccc1C` (stereo partly drawn) [Compound 21] gave an Onset time [1, 2] of 1 min, a Duration [1, 3] of 57 h and a Duration (sciatic nerve) of 24 to 48 h. It also gave an Onset time (sciatic nerve) of 1 min.
With `CCCC[N+]1(CCCCN2CCCCC2C(=O)Nc2c(C)cccc2C)CCC[C@@H]1C(=O)Nc1c(C)cccc1C` (stereo partly drawn) [Compound 17] the Duration (sciatic nerve) was 12 to 24 h and the Onset time (sciatic nerve) was 1 min.
`CCCC[N+]1(CCCCCN2CCCCC2C(=O)NC2CCCCC2)CCCCC1C(=O)Nc1c(C)cccc1C` (stereo not drawn) [Compound 6] was tested, and the Duration (sciatic nerve) was 12 h and the Onset time (sciatic nerve) was 1 min.
`CCCC[N+]1(CCCCN2CCCCC2C(=O)Nc2ccccc2)CCCCC1C(=O)Nc1c(C)cccc1C` (stereo not drawn) [Compound 8] was tested, and the Onset time [1, 2] was 1 min, the Duration [1, 3] was 72 to 96 h and the Duration [1, 4] was 52 h. The Onset time [1, 4] was 1 min, the Duration (sciatic nerve) was 48 h and the Onset time (sciatic nerve) was 1 min.
`CCC[N+]1(CCCCCN2CCCCC2C(=O)NC2CCCCC2)CCCCC1C(=O)Nc1c(C)cccc1C` (stereo not drawn) [Compound 11] showed a Duration (sciatic nerve) of 11 h and an Onset time (sciatic nerve) of 1 min.
In the case of `CCCC[N+]1(CCCCCN2CCCCC2C(=O)Nc2ccc(F)cc2)CCCCC1C(=O)Nc1c(C)cccc1C` (stereo not drawn) [Compound 3], the Duration (sciatic nerve) is reported as 18 h and the Onset time (sciatic nerve) is reported as 1 min.
`CCCC[N+]1(CCCCCN2CCCCC2C(=O)Nc2ccccc2)CCCCC1C(=O)Nc1c(C)cccc1C` (stereo not drawn) [Compound 2] was tested, and the Duration (sciatic nerve) was 15 h and the Onset time (sciatic nerve) was 1 min.
With `CCCC[N+]1(CCCCCN2CCCCC2C(=O)Nc2ccc(C)cc2)CCCCC1C(=O)Nc1c(C)cccc1C` (stereo not drawn) [Compound 4] the Onset time [1, 2] was 1 min, the Duration [1, 3] was 72 to 96 h and the Duration [1, 4] was 56 h. For the same molecule, the Onset time [1, 4] was 1 min, the Duration (sciatic nerve) was 48 h and the Onset time (sciatic nerve) was 1 min.
`CCCC[N+]1(CCCCN2CCCCC2C(=O)Nc2ccc(C)cc2)CCC[C@@H]1C(=O)Nc1c(C)cc(C)cc1C` (stereo partly drawn) [Compound 28] was tested, and the Duration (sciatic nerve) was 12 to 24 h and the Onset time (sciatic nerve) was 1 min.
With `CCCC[N+]1(CCCCCN2CCCCC2C(=O)Nc2c(C)cccc2C)CCC[C@@H]1C(=O)Nc1c(C)cccc1C` (stereo partly drawn) [Compound 22] the Onset time [1, 2] was 1 min, the Duration [1, 3] was 60 h and the Duration (sciatic nerve) was 24 to 48 h. For the same molecule, the Onset time (sciatic nerve) was 1 min.
Work on `CCCC[N+]1(CCCCN2CCCCC2C(=O)Nc2ccc(F)cc2)CCCCC1C(=O)Nc1c(C)cccc1C` (stereo not drawn) [Compound 7] yielded an Onset time [1, 2] of 2 min, a Duration [1, 3] of 52 h and a Duration (sciatic nerve) of 30 h. For the same molecule, the Onset time (sciatic nerve) was 1 min.
